# Measured values published in ChEMBL document CHEMBL4011609, “Discovery of novel BRD4 inhibitors by high-throughput screening, crystallography, and cell-based assays” (Bioorg Med Chem Lett, 2017).
# The source made the active and inactive calls. The calls are words filed in the database; no cut-off is given here.
# Legend:
# MV4-11 [1] = test: Induction of apoptosis in human MV4-11 cells assessed as live cells at 27 uM after 72 hrs by Annexin V-FITC/propidium iodide staining based flow cytometry (reference value: 92 %); format: functional
# [2] = target: T1, Bromodomain-containing protein 4 (Homo sapiens, UniProt O60885); test: Inhibition of human BRD4-BD1 (49 to 170 residues) expressed in Escherichia coli BL21(DE3) using N-C:SGRG-K(Ac)-GG-K(Ac)-GLG-K(Ac)-GGA-K(Ac)-RHRKVGG-K(biotin) as substrate preincubated for 15 mins followed by substrate addition measured after 5 mins by AlphaScreen assay
# [3] = target: T1, Bromodomain-containing protein 4; test: Binding affinity to human BRD4 BD1 (49 to 170 residues) expressed in Escherichia coli BL21(DE3) assessed as change in melting temperature at 50 uM by SYPRO Orange probe-based Real-Time PCR method
# [4] = target: Nucleosome-remodeling factor subunit BPTF (Homo sapiens) (UniProt Q12830); test: Inhibition of FALZ (unknown origin) at 100 uM using acetylated lysine as substrate relative to control
# [5] = target: SWI/SNF-related matrix-associated actin-dependent regulator of chromatin subfamily A member 2 (Homo sapiens) (UniProt P51531); test: Inhibition of SMARCA2 (unknown origin) at 100 uM using acetylated lysine as substrate relative to control
# Chain of SWI/SNF-related matrix-associated actin-dependent regulator of chromatin subfamily A member 2 (Homo sapiens) (P51531 whole entry): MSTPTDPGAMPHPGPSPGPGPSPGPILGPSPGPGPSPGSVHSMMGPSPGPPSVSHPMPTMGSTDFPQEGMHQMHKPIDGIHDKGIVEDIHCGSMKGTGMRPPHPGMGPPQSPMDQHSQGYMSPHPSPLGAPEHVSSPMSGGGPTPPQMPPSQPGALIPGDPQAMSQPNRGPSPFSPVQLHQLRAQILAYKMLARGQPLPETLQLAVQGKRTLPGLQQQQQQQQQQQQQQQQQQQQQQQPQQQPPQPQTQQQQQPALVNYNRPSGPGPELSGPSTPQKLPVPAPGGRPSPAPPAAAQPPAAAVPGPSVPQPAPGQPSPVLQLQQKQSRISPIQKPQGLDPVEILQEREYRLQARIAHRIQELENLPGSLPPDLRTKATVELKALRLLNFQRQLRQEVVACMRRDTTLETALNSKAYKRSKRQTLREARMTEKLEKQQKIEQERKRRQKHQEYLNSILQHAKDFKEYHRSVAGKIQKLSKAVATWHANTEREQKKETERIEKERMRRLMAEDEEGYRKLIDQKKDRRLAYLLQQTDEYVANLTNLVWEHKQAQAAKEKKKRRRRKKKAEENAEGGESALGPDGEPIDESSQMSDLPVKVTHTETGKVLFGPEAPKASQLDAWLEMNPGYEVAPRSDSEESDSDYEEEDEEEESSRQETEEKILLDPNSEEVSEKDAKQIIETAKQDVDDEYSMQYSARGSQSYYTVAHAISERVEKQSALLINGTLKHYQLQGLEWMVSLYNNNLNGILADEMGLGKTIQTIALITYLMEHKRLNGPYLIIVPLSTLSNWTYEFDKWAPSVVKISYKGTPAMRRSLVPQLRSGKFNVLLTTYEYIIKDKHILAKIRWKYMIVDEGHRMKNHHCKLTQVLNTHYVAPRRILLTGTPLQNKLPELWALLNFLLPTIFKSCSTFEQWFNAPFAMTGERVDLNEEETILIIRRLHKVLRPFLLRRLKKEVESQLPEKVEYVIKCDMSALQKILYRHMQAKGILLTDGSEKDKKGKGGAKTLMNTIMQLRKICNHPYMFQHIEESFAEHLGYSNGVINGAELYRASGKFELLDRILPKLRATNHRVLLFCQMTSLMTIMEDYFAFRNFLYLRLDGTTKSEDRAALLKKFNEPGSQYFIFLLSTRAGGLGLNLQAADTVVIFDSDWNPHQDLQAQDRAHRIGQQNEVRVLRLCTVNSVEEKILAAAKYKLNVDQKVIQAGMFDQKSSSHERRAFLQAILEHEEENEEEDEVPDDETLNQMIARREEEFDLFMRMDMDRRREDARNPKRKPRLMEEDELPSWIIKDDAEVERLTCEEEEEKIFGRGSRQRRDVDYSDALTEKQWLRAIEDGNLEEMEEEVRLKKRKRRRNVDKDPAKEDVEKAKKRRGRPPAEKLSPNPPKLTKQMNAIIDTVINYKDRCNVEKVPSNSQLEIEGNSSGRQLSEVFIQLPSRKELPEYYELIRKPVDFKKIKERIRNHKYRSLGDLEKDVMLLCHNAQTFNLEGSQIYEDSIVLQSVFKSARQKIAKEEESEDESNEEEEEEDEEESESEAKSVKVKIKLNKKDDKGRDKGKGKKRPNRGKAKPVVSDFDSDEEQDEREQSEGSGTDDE
# [6] = target: T2, Bromodomain-containing protein 7 (Homo sapiens) (UniProt Q9NPI1); test: Inhibition of BRD7 (unknown origin) at 100 uM using acetylated lysine as substrate relative to control
# T2 sequence (whole entry): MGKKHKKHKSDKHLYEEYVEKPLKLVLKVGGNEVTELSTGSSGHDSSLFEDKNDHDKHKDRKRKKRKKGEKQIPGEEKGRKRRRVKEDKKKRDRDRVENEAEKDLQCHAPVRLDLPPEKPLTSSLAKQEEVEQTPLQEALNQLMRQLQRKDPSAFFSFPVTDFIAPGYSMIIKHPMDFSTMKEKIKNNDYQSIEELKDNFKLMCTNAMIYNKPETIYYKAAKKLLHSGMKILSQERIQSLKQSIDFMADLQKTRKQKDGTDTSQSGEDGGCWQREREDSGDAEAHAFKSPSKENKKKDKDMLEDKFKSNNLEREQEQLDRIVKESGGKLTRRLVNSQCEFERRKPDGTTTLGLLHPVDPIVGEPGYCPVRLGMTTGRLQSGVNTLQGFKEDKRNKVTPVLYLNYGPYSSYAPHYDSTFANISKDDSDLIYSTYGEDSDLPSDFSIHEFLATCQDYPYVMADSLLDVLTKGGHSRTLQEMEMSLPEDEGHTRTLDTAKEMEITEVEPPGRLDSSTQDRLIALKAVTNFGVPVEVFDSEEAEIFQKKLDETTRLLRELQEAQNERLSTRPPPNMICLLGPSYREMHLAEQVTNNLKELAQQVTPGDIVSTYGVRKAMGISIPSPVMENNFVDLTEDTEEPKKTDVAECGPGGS
# [7] = target: T3, Bromodomain-containing protein 9 (Homo sapiens) (UniProt Q9H8M2); test: Inhibition of BRD9 (unknown origin) at 100 uM using acetylated lysine as substrate relative to control
# T3 sequence (whole entry): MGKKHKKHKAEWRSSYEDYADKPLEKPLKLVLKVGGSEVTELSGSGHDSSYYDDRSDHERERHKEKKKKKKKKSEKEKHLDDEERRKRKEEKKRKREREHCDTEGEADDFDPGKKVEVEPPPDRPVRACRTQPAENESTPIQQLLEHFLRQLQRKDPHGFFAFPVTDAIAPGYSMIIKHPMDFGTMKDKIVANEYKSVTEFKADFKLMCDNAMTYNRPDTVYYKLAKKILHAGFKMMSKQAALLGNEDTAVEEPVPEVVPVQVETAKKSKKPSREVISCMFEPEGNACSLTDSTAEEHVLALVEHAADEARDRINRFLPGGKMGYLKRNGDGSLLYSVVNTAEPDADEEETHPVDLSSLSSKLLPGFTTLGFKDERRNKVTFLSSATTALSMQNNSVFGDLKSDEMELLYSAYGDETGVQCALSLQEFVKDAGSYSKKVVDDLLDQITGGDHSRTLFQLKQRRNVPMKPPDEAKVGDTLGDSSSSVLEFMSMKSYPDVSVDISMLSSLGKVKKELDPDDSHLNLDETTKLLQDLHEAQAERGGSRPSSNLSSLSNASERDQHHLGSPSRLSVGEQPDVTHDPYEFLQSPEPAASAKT
# [8] = target: Nucleosome-remodeling factor subunit BPTF (Homo sapiens) (UniProt Q12830); test: Inhibition of FALZ (unknown origin) at 50 uM using acetylated lysine as substrate relative to control
# [9] = target: SWI/SNF-related matrix-associated actin-dependent regulator of chromatin subfamily A member 2 (Homo sapiens) (UniProt P51531); test: Inhibition of SMARCA2 (unknown origin) at 50 uM using acetylated lysine as substrate relative to control
# [10] = target: T2, Bromodomain-containing protein 7 (Homo sapiens); test: Inhibition of BRD7 (unknown origin) at 50 uM using acetylated lysine as substrate relative to control
# [11] = target: T3, Bromodomain-containing protein 9 (Homo sapiens); test: Inhibition of BRD9 (unknown origin) at 50 uM using acetylated lysine as substrate relative to control
# [12] = target: T1, Bromodomain-containing protein 4; test: Inhibition of BRD4 BD1 in human MV4-11 cells assessed as reduction in Bcl-2 mRNA level at 10 to 30 uM after 6 hrs by Sybr green dye based qRT-PCR analysis; format: cell-based
# [13] = target: T1, Bromodomain-containing protein 4; test: Inhibition of BRD4 BD1 in human MV4-11 cells assessed as reduction in c-Myc expression after 6 hrs by Western blot method; format: cell-based
# [14] = target: T1, Bromodomain-containing protein 4; test: Inhibition of BRD4 BD1 in human MV4-11 cells assessed as reduction in CDK6 mRNA level at 10 to 30 uM after 6 hrs by Sybr green dye based qRT-PCR analysis; format: cell-based
# [15] = target: T1, Bromodomain-containing protein 4; test: Inhibition of BRD4 BD1 in human MV4-11 cells assessed as reduction in c-Myc mRNA level at 10 to 30 uM after 6 hrs by Sybr green dye based qRT-PCR analysis; format: cell-based
# MV4-11 [16] = test: Antiproliferative activity against human MV4-11 cells after 3 days by Alamar blue assay; settings: MV4-11, 72 h
# MV4-11 [17] = test: Antiproliferative activity against human MV4-11 cells after 7 days by Alamar blue assay; settings: MV4-11, 168 h
# MV4-11 [18] = test: Cell cycle arrest in human MV4-11 cells assessed as accumulation at G0/G1 phase at 27 uM after 24 hrs by propidium iodide/RNase staining based flow cytometry (reference value: 57.54%); format: functional
# MV4-11 [19] = test: Cell cycle arrest in human MV4-11 cells assessed as accumulation at S phase at 27 uM after 24 hrs by propidium iodide/RNase staining based flow cytometry (reference value: 31.98 %); format: functional
# MV4-11 [20] = test: Cell cycle arrest in human MV4-11 cells assessed as accumulation at G2 phase at 27 uM after 24 hrs by propidium iodide/RNase staining based flow cytometry (reference value: 10.48 %); format: functional
# MV4-11 [21] = test: Induction of apoptosis in human MV4-11 cells assessed as apoptotic cells at 27 uM after 72 hrs by Annexin V-FITC/propidium iodide staining based flow cytometry (reference value: 3.62 %); format: functional
# MV4-11 [22] = test: Induction of apoptosis in human MV4-11 cells assessed as necrotic cells at 27 uM after 72 hrs by Annexin V-FITC/propidium iodide staining based flow cytometry (reference value: 1.68 %); format: functional
# [23] = target: T1, Bromodomain-containing protein 4; test: Binding affinity to human BRD4 BD1 (49 to 170 residues) expressed in Escherichia coli BL21(DE3) assessed as change in melting temperature at 100 uM by SYPRO Orange probe-based Real-Time PCR method
# [24] = target: T1, Bromodomain-containing protein 4; test: Binding affinity to human BRD4 BD1 (49 to 170 residues) expressed in Escherichia coli BL21(DE3) assessed as change in melting temperature at 200 uM by SYPRO Orange probe-based Real-Time PCR method
# [25] = target: T1, Bromodomain-containing protein 4; test: Binding affinity to human BRD4 BD1 (49 to 170 residues) expressed in Escherichia coli BL21(DE3) assessed as change in melting temperature by SYPRO Orange probe-based Real-Time PCR method
smiles,measurement,setting,value
CN(CCCNc1cc(=O)oc2ccccc12)C(=O)c1cccs1,Activity,MV4-11 [1],76.2%
same,IC50,[2],0.81 µM
same,ΔTm,[3],0.85 °C
same,inhibition,[4],inactive
same,inhibition,[5],inactive
same,inhibition,[6],16%
same,inhibition,[7],12%
same,inhibition,[8],inactive
same,inhibition,[9],inactive
same,inhibition,[10],9%
same,inhibition,[11],inactive
same,inhibition,[12],Active
same,inhibition,[13],Dose-dependent effect
same,inhibition,[14],Active
same,inhibition,[15],Active
same,IC50,MV4-11 [16],18.8 µM
same,IC50,MV4-11 [17],10 µM
same,Activity,MV4-11 [18],75.23%
same,Activity,MV4-11 [19],18.93%
same,Activity,MV4-11 [20],5.84%
same,Activity,MV4-11 [21],10.7%
same,Activity,MV4-11 [22],6.9%
same,ΔTm,[23],3.06 °C
same,ΔTm,[24],7.07 °C
same,deltaTm,[25],Dose-dependent effect
